# According to publication PMC10826043 (BMC Complementary Medicine and Therapies, 2024):
# Like-named read-outs stand apart in the source and are kept apart here.
# Columns and labels:
# [1] = target: α-amylase; conditions: validation set, cited from earlier work
# [2] = target: T1, α-amylase from porcine pancreas (Sus scrofa, UniProt P00690); experiment: In vitro pancreatic α-amylase inhibitory assay (starch/DNS, 540 nm); type: biochemical; conditions: 1% starch, pH 6.9, 25 °C, read-out: IC50 (α-amylase inhibition)
# T1 construct: α-amylase from porcine pancreas (A3176); purchased Sigma-Aldrich (Germany) A3176; host or cells: porcine pancreas (tissue-derived)
# T1 sequence (P00690 16-511): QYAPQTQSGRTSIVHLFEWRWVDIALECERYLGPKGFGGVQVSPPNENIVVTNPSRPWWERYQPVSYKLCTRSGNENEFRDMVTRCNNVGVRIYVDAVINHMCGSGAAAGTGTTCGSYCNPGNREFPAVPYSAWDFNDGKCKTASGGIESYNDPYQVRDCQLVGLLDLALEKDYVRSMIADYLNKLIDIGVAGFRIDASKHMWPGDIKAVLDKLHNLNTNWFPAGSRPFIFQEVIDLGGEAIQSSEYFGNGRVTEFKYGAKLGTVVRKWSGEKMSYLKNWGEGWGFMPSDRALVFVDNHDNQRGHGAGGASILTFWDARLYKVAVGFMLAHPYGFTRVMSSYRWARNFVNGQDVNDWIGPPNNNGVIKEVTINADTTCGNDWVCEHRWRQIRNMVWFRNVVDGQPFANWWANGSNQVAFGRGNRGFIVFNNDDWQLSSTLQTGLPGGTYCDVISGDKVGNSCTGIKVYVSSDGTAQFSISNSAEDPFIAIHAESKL
# Protocol: Analytical purity grade solvents were used throughout the study.
# With reference to the established technique, the assay was carried out quantitatively with minor adjustments. Initially, 500µL test solution was preincubated with 500µL α-amylase solution (0.55 unit/mL) at 25°C for 10 min. The α-amylase was prepared in a buffer solution (0.02M sodium phosphate pH 6.9 with 0.006M NaCl). Afterwards, 500µL of 1% w/v starch in buffer solution was mixed in and left to incubate for 10 min at 25°C. To bring the reaction to a halt, 1mL dinitrosalicylic acid (DNS) was introduced and the mixture was placed in a boiling water bath for 3.5 min. After cooling to room temperature, the mixture was then diluted using 10mL distilled water and absorbance was measured using a Laxco spectrophotometer (α1502, Laxco Inc., USA) at λ 540nm. Blanks used throughout the experiment were made by adding pure buffer instead of α-amylase solution. […] To calculate the pancreatic α-amylase inhibitory activity, the following equation was used: %Inhibtion=100×1-Abs540nmExtract-Abs540nmPositivecontrol/Abs540nmNegativecontrol-Abs540nmPositivecontrol
# [3] = study encompassing 714 medicated patients; ref [10]; cited from earlier work
smiles,measurement,setting,value
"OC[C@H]1O[C@@H](Oc2cc3c(O[C@@H]4O[C@H](CO)[C@@H](O)[C@H](O)[C@H]4O)cc(O)cc3[o+]c2-c2ccc(O)c(O)c2)[C@H](O)[C@@H](O)[C@@H]1O [Cyanidin-3,5-glucoside]",IC50,[1]; supplement ref [5],40 ± 7 µM
COc1cc(-c2[o+]c3cc(O)cc(O)c3cc2O[C@@H]2O[C@H](CO)[C@@H](O)[C@H](O)[C@H]2O)ccc1O [Peonidin-3-glucoside],IC50,[1]; supplement ref [5],75 ± 7 µM
COc1cc(C(=O)O)cc(OC)c1O [Syringic acid],IC50,[1]; supplement ref [10],1980 ± 10 µM
COc1cc(C(=O)O)ccc1O [Vanillic acid],IC50,[1]; supplement ref [10],2050 ± 10 µM
Oc1cc(O)c2c(c1)OC(c1ccc(O)c(O)c1)C(O)C2 (stereo not shown) [Catechin],IC50,[2],5040 ± 40 µM
same,IC50,[1]; supplement ref [9],1160 ± 24 µM
O=c1cc(-c2ccccc2)oc2cc(O)cc(O)c12 [Chrysin],IC50,[1]; supplement ref [12],15300 ± 374 µM
O=C(O)c1ccccc1O [Salicylic acid],IC50,[1]; supplement ref [13],13000 µM
O=c1cc(-c2ccc(O)cc2)oc2cc(O)cc(O)c12 [Apigenin],IC50,[1]; supplement ref [3],12.2 ± 2.14 µM
"O=C(/C=C/c1ccc(O)c(O)c1)O[C@H](Cc1ccc(O)c(O)c1)C(=O)O [Rosmarinic Acid, rosmarinic acid]",IC50,[2],7000 ± 90 µM
COc1ccc(-c2oc3cc(O)cc(O)c3c(=O)c2O)cc1 [Kaempferide],IC50,[1]; supplement ref [3],22.9 ± 3.17 µM
"O=c1c(Cc2ccc(O)cc2)coc2cc(O)cc(O)c12 [5,7-dihydroxy-3-(4′-hydroxybenzyl) chromone]",IC50,[1]; supplement ref [11],2590 ± 50 µM
COc1cc(C=O)ccc1O [Vanillin],IC50,[1]; supplement ref [13],71000 µM
O=c1c(O)c(-c2cc(O)c(O)c(O)c2)oc2cc(O)cc(O)c12 [Myricetin],IC50,[2],4910 ± 60 µM
same,IC50,[1]; supplement ref [8],107 ± 6 µM
OC[C@H]1O[C@@H](Oc2cc3c(O)cc(O)cc3[o+]c2-c2ccc(O)c(O)c2)[C@H](O)[C@@H](O)[C@@H]1O [Cyanidin-3-glucoside],IC50,[1]; supplement ref [5],24 ± 3 µM
O=C1C[C@@H](c2ccc(O)cc2)Oc2cc(O)cc(O)c21 [Naringenin],IC50,[1]; supplement ref [3],21.9 ± 3.21 µM
C[C@H]1O[C@H](O[C@H]2[C@H](O)[C@@H](O)[C@@H](O[C@H]3[C@H](O)[C@@H](O)C(O)O[C@@H]3CO)O[C@@H]2CO)[C@H](O)[C@@H](O)[C@@H]1N[C@H]1C=C(CO)[C@@H](O)[C@H](O)[C@H]1O (stereo partly shown) [Acarbose],participants who discontinued acarbose due to gastrointestinal side effects,[3],19%
O=C(O[C@@H]1Cc2c(O)cc(O)cc2O[C@@H]1c1cc(O)c(O)c(O)c1)c1cc(O)c(O)c(O)c1 [Epigallocatechin gallate],IC50,[1]; supplement ref [4],11.5 ± 0.02 µM
O=C(O)C=Cc1ccc(O)cc1 [p-Coumaric acid],IC50,[1]; supplement ref [13],34100 µM
C[C@@H]1O[C@@H](OC[C@H]2O[C@@H](Oc3cc4c(O)cc(O)cc4[o+]c3-c3ccc(O)c(O)c3)[C@H](O)[C@@H](O)[C@@H]2O)[C@H](O)[C@H](O)[C@H]1O [Cyanidin-3-rutinoside],IC50,[1]; supplement ref [6],24.4 ± 0.1 µM
O=c1c(O)c(-c2ccc(O)c(O)c2)oc2cc(OC3OC(CO)C(O)C(O)C3O)c(O)c(O)c12 [Quercetagetin-7-O-β-D-glucopyranoside],IC50,[1]; supplement ref [3],8.04 ± 0.69 µM
